Source: patent US4388235A, “Synthesis of peptides” (Armour Pharmaceutical Company, priority 1982, dated 1983)
Positions of bridges follow the written chain, without caps; N, C: chain ends. Residues, ends and D or L forms follow the SMILES beside them.

Experiment: biological potency assay of the purified product (MRC units)
Assay type: in vivo
Conditions: freeze-dried product of Example 1

CC(C)C[C@H](NC(=O)[C@H](CCCCN)NC(=O)CNC(=O)[C@H](CC(C)C)NC(=O)[C@@H](NC(=O)[C@@H]1CSSC[C@H](N)C(=O)N[C@@H](CO)C(=O)N[C@@H](CC(N)=O)C(=O)N[C@@H](CC(C)C)C(=O)N[C@@H](CO)C(=O)N[C@@H]([C@@H](C)O)C(=O)N1)C(C)C)C(=O)N[C@@H](CO)C(=O)N[C@@H](CCC(N)=O)C(=O)N[C@@H](CCC(=O)O)C(=O)N[C@@H](Cc1c[nH]cn1)C(=O)N[C@@H](CCCCN)C(=O)N[C@@H](CC(C)C)C(=O)N[C@@H](CCC(N)=O)C(=O)N[C@H](C(=O)N[C@@H](Cc1ccc(O)cc1)C(=O)N1CCC[C@H]1C(=O)N[C@@H](CCCNC(=N)N)C(=O)N[C@H](C(=O)N[C@@H](CC(N)=O)C(=O)N[C@H](C(=O)NCC(=O)N[C@@H](CO)C(=O)NCC(=O)N[C@H](C(=O)N1CCC[C@H]1C(N)=O)[C@@H](C)O)[C@@H](C)O)[C@@H](C)O)[C@@H](C)O [des Leu^16 -SCT, Des-Leu^16 -salmon calcitonin] (H-CSNLSTCVLGKLSQEHKLQTYPRTNTGSGTP-NH2; disulfide 1-7)
assayed potency: 580 MRC units per mg
